Earlier results in patent US20150024505A1, “APPARATUS FOR EVALUATING CARBONATE SOLUBILITY” (SAUDI ARABIAN OIL COMPANY, priority 2013, published 2015).

Settings: in water; 10,000 psig and 300° F. required to reach this level

O=C=O [CO2]
limit of CO2 solubility: about 150 scf/stb of water
